Consider 32 molecules from patent publication US20250188037A1, “N-(PYRROLIDIN-3-YL OR PIPERIDIN-4-YL)ACETAMIDE DERIVATIVES” (Takeda Pharmaceutical Company Limited, priority 2022, published 2025).

The target in assay [1] is T1, SSTR4 (Homo sapiens (Human), UniProt P31391). In words: Inhibition of forskolin stimulated cAMP in cells overexpressing SSTR4. It counts as cell-based. The conditions noted are these: inhibition of forskolin stimulated cAMP in CHO-K1 cells overexpressing SSTR4; read-out: SSTR4 Activity pEC50 (converted). As for the experimental part: Inhibition of Forskolin Stimulated cAMP in Cells Overexpressing SSTR4
T1 sequence (P31391 whole entry): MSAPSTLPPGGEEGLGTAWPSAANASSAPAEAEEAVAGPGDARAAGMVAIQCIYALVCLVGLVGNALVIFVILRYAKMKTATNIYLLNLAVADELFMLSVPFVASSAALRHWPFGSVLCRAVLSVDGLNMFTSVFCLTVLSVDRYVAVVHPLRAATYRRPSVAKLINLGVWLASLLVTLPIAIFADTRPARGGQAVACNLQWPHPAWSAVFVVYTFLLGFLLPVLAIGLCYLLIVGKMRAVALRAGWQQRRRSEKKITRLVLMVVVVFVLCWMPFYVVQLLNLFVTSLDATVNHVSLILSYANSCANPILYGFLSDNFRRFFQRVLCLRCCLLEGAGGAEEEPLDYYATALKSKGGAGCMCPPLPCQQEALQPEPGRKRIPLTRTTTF
This cell-based assay measures the ability of compounds to inhibit forskolin stimulated cAMP in CHO-K1 cells overexpressing SSTR4. CHO-K1 cells overexpressing SSTR4 (CHO-SSTR4) are purchased from DiscoveRx (product code 95-0059C2). The CHO-SSTR4 cells are maintained in F12K media with 10% Fetal Bovine Serum (Hyclone), 1% Pen/Strep (Life Technologies), and 800 μg/mL G418 (Life Technologies). […] The next day, the culture media is removed from the cells and the cells are washed (added then removed) with Krebs Ringer Buffer (ZenBio, KRB-1000 mL). […] The cells are incubated in 10 μL compound/stimulation buffer for 30 minutes at room temperature. Cellular cAMP levels are detected with a HTRF LANCE Ultra cAMP kit (Perkin Elmer, catalog number TRF0264).
The assay is performed in accordance with the manufacturer's instructions. […] of diluted Eu—W8044 labeled streptavidin (dilution: 1:50 in cAMP Detection Buffer) is added to each well. Then 5 μL of diluted biotin cAMP (dilution: 1:150 in cAMP Detection Buffer) is added to each well. The plates are covered and allowed to incubate for 60 minutes at room temperature on a shaker. […] The pEC50 values are generated using Activity Base for Screening Data Management.

For assay [2], the target named is T1, SSTR4. Put plainly: SSTR4 I-125 somatostatin competition binding assay. As to conditions: for SSTR4 Binding pIC50: membranes from CHO-K1 cells overexpressing SSTR4. From the text:
The scintillator sheets are melted to filters using a heat block.

The target of another assay is SSTR1 (Homo sapiens (Human), UniProt P30872).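 Further: binding assay on CHO-K1 cell membranes overexpressing SSTR1, incubated 60 min at room temperature, bound fraction collected on filters and read by scintillation counting.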
Chain of SSTR1 (P30872 whole entry): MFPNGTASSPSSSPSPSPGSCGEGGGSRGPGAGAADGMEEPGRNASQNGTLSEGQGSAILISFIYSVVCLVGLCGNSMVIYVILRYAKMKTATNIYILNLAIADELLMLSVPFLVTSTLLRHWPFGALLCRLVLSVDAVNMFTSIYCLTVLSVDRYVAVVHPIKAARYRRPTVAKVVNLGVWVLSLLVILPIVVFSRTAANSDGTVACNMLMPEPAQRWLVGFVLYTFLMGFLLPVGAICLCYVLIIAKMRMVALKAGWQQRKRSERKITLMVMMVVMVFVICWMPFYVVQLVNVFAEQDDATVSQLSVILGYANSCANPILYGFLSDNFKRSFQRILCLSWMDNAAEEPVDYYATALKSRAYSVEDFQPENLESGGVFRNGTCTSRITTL

Each structure is given as a SMILES string.

Protocol for SSTR1: Membranes from CHO-K1 cells overexpressing SSTR1 are purchased from Perkin Elmer (catalog number ES-520-M400UA). […] Then 10 μg of SSTR1 membranes in 50 μL assay buffer are added per well. The plate is incubated for 60 minutes at room temperature. […] The contents of the assay plate are transferred to filters with a TomTech harvester and washed 5 times with 20 mM HEPES, 100 mM NaCl. […] The scintillator sheets are melted to the filters using a heat block. The filters are then read in a MicroBeta scintillation counter. Binding Ki curves are generated using Activity Base for Screening Data Management and the results are reported as pIC50.

Regarding `CC[C@@H]1CN(C)CC[C@H]1NC(=O)C1(Oc2ccccc2Cl)CC1` (relative stereo) [Example 7, 1-(2-chlorophenoxy)-N-(trans-3-ethyl-1-methylpiperidin-4-yl)cyclopropane-1-carboxamide], the EC50 at SSTR4 [1] is 178 nM.

As to `Cc1ccc(CC2(C(=O)N[C@@H]3CCN(C)C[C@H]3C)CC2)cc1` (relative stereo) [Example 11, N-(trans-1,3-dimethylpiperidin-4-yl)-1-(4-methylbenzyl)cyclopropane-1-carboxamide], on SSTR4 [1], the EC50 was 141 nM. The same measure, in the same setting: then `C[C@@H]1CN(C)CC[C@H]1NC(=O)C1(Cc2ccccc2Cl)CC1` (relative stereo) [Example 17, 1-(2-chlorobenzyl)-N-(trans-1,3-dimethylpiperidin-4-yl)cyclopropane-1-carboxamide], with 89.1 nM. Consider `C[C@@H]1CN(C)CC[C@H]1NC(=O)C1(Cc2cccc(F)c2)CC1` (relative stereo) [Example 20, N-(trans-1,3-dimethylpiperidin-4-yl)-1-(3-fluorobenzyl)cyclopropane-1-carboxamide], for which, on SSTR4 [1], the EC50 is 77.6 nM. In the case of `CC[C@@H]1CN(C)CC[C@H]1NC(=O)C1(Cc2cccc(C)c2)CC1` (relative stereo) [Example 21, N-(trans-3-ethyl-1-methylpiperidin-4-yl)-1-(3-methylbenzyl)cyclopropane-1-carboxamide], the EC50 at SSTR4 [1] is 42.7 nM. As to `C[C@H]1C[C@@H](NC(=O)C(F)(F)Oc2ccccc2)CCN1` (relative stereo) [Example 50, 2,2-difluoro-N-(cis-2-methylpiperidin-4-yl)-2-phenoxyacetamide], on SSTR4 [1], the EC50 was 57.5 nM. Also, the IC50 on SSTR4 [2] (membranes from CHO-K1 cells overexpressing SSTR4, read-out: SSTR4 Binding pIC50 (converted)) is 1320 nM. In the case of `Cc1cccc(CC2(C(=O)NC3CN(C)CC3c3ccccc3)CC2)c1` (centres unmarked) [Example 2, N-(1-methyl-4-phenylpyrrolidin-3-yl)-1-(3-methylbenzyl)cyclopropane-1-carboxamide], on SSTR4 [1], the EC50 is 34.7 nM. For the molecule `Cc1cccc(CC2(C(=O)NC3CN(C)CC3C)CC2)c1` (centres unmarked) [Example 6, N-(1,4-dimethylpyrrolidin-3-yl)-1-(3-methylbenzyl)cyclopropane-1-carboxamide], the EC50 on SSTR4 [1] was 31.6 nM. At SSTR4 [2], the “SSTR4 Binding pIC50” value is reported as 6.55. Besides, the IC50 on SSTR1 was 8320 nM. Take `CC1CC(NC(=O)C2(Oc3ccccc3Cl)CC2)CCN1C` (centres unmarked) [Example 8, 1-(2-chlorophenoxy)-N-(1,2-dimethylpiperidin-4-yl)cyclopropane-1-carboxamide]: the EC50 at SSTR4 [1] was 182 nM. In the case of `O=C(NC1CCN2CCCC12)C1(Oc2ccccc2Cl)CC1` (centres unmarked) [Example 9, 1-(2-chlorophenoxy)-N-(hexahydro-1H-pyrrolizin-1-yl)cyclopropane-1-carboxamide], the EC50 at SSTR4 [1] is 182 nM.

On to `C[C@H]1CNCC[C@@H]1NC(=O)C1(Cc2ccc(F)cc2)CC1` [Example 13, 1-(4-fluorobenzyl)-N-((3S,4S)-3-methylpiperidin-4-yl)cyclopropane-1-carboxamide], for which the EC50 at SSTR4 [1] was 2.75 nM. Further, the “SSTR4 Binding pIC50” value at SSTR4 [2] worked out at 7.45. This molecule showed an IC50 at SSTR1 of 8710 nM. Consider `O=C(NC1CCNCC1)C(F)(F)Oc1ccccc1` [Example 14, 2,2-difluoro-2-phenoxy-N-(piperidin-4-yl)acetamide], for which, at SSTR4 [1], the EC50 is 67.6 nM. Moreover, on SSTR4 [2], the “SSTR4 Binding pIC50” value came out at 6.39. The same molecule displayed an IC50 against SSTR1 greater than 50100 nM. In the same order, the values of `C[C@H]1CNCC[C@@H]1NC(=O)C1(Cc2ccc(Cl)cc2)CC1` [Example 18, 1-(4-chlorobenzyl)-N-((3S,4S)-3-methylpiperidin-4-yl)cyclopropane-1-carboxamide] are 2 nM, 7.58 and 4680 nM.

As for `O=C(N[C@H]1CCNC[C@@H]1F)C1(Cc2ccc(Cl)cc2)CC1` [Example 23, 1-(4-chlorobenzyl)-N-((3S,4S)-3-fluoropiperidin-4-yl)cyclopropane-1-carboxamide], the EC50 on SSTR4 [1] was 23.4 nM. For the same molecule, on SSTR4 [2], the “SSTR4 Binding pIC50” value came out at 7.13. Moreover, the IC50 at SSTR1 is 42700 nM. As to `Cc1ccccc1CC1(C(=O)N[C@H]2CCNC[C@@H]2F)CC1` [Example 24, N-((3S,4S)-3-fluoropiperidin-4-yl)-1-(2-methylbenzyl)cyclopropane-1-carboxamide], the EC50 at SSTR4 [1] is 19.5 nM. Moreover, on SSTR4 [2], the “SSTR4 Binding pIC50” value was 7.23. On SSTR1, this molecule returned an IC50 greater than 50100 nM. With `C[C@H]1CNCC[C@@H]1NC(=O)C(F)(F)Cc1ccccc1` [Example 26, 2,2-difluoro-N-((3S,4S)-3-methylpiperidin-4-yl)-3-phenylpropanamide], the EC50 at SSTR4 [1] was 14.8 nM. In addition, the “SSTR4 Binding pIC50” value on SSTR4 [2] came out at 7.15. The molecule further gave an IC50 at SSTR1 greater than 50100 nM. With `O=C(N[C@H]1CCNC[C@@H]1F)C1(Cc2cccc(Cl)c2)CC1` [Example 27, 1-(3-chlorobenzyl)-N-((3S,4S)-3-fluoropiperidin-4-yl)cyclopropane-1-carboxamide], the EC50 at SSTR4 [1] was 10.2 nM. The “SSTR4 Binding pIC50” value on SSTR4 [2] is 7.25. Besides, on SSTR1, the IC50 is greater than 50100 nM. For the molecule `CN1CCC(NC(=O)C(F)(F)Oc2ccccc2)CC1` [Example 28, 2,2-difluoro-N-(1-methylpiperidin-4-yl)-2-phenoxyacetamide], the EC50 on SSTR4 [1] is 195 nM. As to `N#Cc1ccccc1OC(F)(F)C(=O)NC1CCNCC1` [Example 32, 2-(2-cyanophenoxy)-2,2-difluoro-N-(piperidin-4-yl)acetamide], the EC50 at SSTR4 [1] was 50.1 nM. The “SSTR4 Binding pIC50” value on SSTR4 [2] was determined as 5.49. Besides, the IC50 against SSTR1 is greater than 50100 nM. On to `C[C@H]1CNCC[C@@H]1NC(=O)C(F)(F)Oc1ccccc1C#N` [Example 33, 2-(2-cyanophenoxy)-2,2-difluoro-N-((3S,4S)-3-methylpiperidin-4-yl)acetamide], for which the EC50 on SSTR4 [1] was 16.6 nM. In addition, on SSTR4 [2], the “SSTR4 Binding pIC50” value amounted to 6.79. The same molecule registered an IC50 on SSTR1 greater than 50100 nM.

For the molecule `Cc1ccc(OC(F)(F)C(=O)NC2CCNCC2)cc1` [Example 34, 2,2-difluoro-N-(piperidin-4-yl)-2-(p-tolyloxy)acetamide], the EC50 on SSTR4 [1] is 47.9 nM. Further, the “SSTR4 Binding pIC50” value on SSTR4 [2] was 6.17. On SSTR1, this molecule came in with an IC50 greater than 50100 nM. Consider `C[C@H]1CN(C)CC[C@@H]1NC(=O)C1(Cc2ccc(F)cc2)CC1` [Example 35, N-((3S,4S)-1,3-dimethylpiperidin-4-yl)-1-(4-fluorobenzyl)cyclopropane-1-carboxamide], for which the EC50 on SSTR4 [1] was 26.3 nM. In addition, the “SSTR4 Binding pIC50” value at SSTR4 [2] was 6.66. The same molecule showed an IC50 against SSTR1 of 5890 nM.

Take `C[C@H]1CN(C)CC[C@@H]1NC(=O)C1(Cc2cccc(Cl)c2)CC1` [Example 36, 1-(3-chlorobenzyl)-N-((3S,4S)-1,3-dimethylpiperidin-4-yl)cyclopropane-1-carboxamide]: the EC50 at SSTR4 [1] is 23.4 nM. The “SSTR4 Binding pIC50” value at SSTR4 [2] stood at 6.56. In addition, at SSTR1, the IC50 is 4680 nM.

`Cc1ccccc1CC1(C(=O)N[C@H]2CCN(C)C[C@@H]2C)CC1` [Example 38, N-((3S,4S)-1,3-dimethylpiperidin-4-yl)-1-(2-methylbenzyl)cyclopropane-1-carboxamide]: the EC50 at SSTR4 [1] was 14.1 nM. `CN1CC[C@H](NC(=O)C2(Cc3ccc(Cl)cc3)CC2)[C@@H](F)C1` [Example 39, 1-(4-chlorobenzyl)-N-((3S,4S)-3-fluoro-1-methylpiperidin-4-yl)cyclopropane-1-carboxamide]: the EC50 on SSTR4 [1] was 102 nM.

For `C[C@H]1CN(C)CC[C@@H]1NC(=O)C(F)(F)Oc1ccccc1` [Example 40, N-((3S,4S)-1,3-dimethylpiperidin-4-yl)-2,2-difluoro-2-phenoxyacetamide], the EC50 on SSTR4 [1] was 117 nM. For `O=C(N[C@H]1CCNC[C@@H]1F)C1(Cc2cccc(F)c2)CC1` [Example 44, 1-(3-fluorobenzyl)-N-((3S,4S)-3-fluoropiperidin-4-yl)cyclopropane-1-carboxamide], the EC50 on SSTR4 [1] was 20.4 nM. Turning to `C[C@@H]1C[C@@H](NC(=O)C(F)(F)Oc2ccccc2)CCN1` [Example 52, 2,2-difluoro-N-((2R,4S)-2-methylpiperidin-4-yl)-2-phenoxyacetamide], the EC50 on SSTR4 [1] was 170 nM. On to `O=C(N[C@H]1CCNC[C@@H]1F)C1(Oc2cccc(Cl)c2)CC1` [Example 59, 1-(3-chlorophenoxy)-N-((3S,4S)-3-fluoropiperidin-4-yl)cyclopropane-1-carboxamide], for which the EC50 on SSTR4 [1] is 58.9 nM. Consider `O=C(N[C@H]1CCNC[C@@H]1F)C1(Oc2ccccc2C2CC2)CC1` [Example 60, 1-(2-cyclopropylphenoxy)-N-((3S,4S)-3-fluoropiperidin-4-yl)cyclopropane-1-carboxamide], for which, on SSTR4 [1], the EC50 was 174 nM. For `CC(Oc1cccc(Cl)c1Cl)C(=O)N[C@H]1CCNC[C@@H]1F` (stereo partly drawn) [Example 61, 2-(2,3-dichlorophenoxy)-N-((3S,4S)-3-fluoropiperidin-4-yl)propanamide], the EC50 on SSTR4 [1] is 123 nM. As for `CC(Oc1ccccc1Cl)C(=O)N[C@@H]1CCN(C)[C@H](C)C1` (stereo partly drawn) [Example 67, 2-(2-chlorophenoxy)-N-((2R,4R)-1,2-dimethylpiperidin-4-yl)propanamide], on SSTR4 [1], the EC50 is 132 nM.
